Experimental data: patent publication US20010051591A1, “Safening crops from the phytotoxic effects of herbicidally active N-phosphonomethyl-glycines” (priority 2000, published 2001)

How the values were obtained:
Assay type in all cases: in vivo
Tomato = test: Example 2: phytotoxic injury to crops, tank mix spray; conditions: clomazone 0 kg/ha, 14 days after treatment
Procedure: (§1) Glyphosate, tested as ROUNDUP® Ultra Herbicide (termed in Examples 1-3 as “Herbicidal Compound”), and COMMAND® 3 ME Herbicide comprised of at least one plant-safening, inorganic, water-soluble salt (calcium chloride), termed in Examples 1 and 2 as “Safening Composition A”, were tested as water solutions on two soybean varieties (Asgrow 2704 and Asgrow […]). The aforementioned solutions were sprayed in admixture as a tank mix onto flats of 12-day-old soybean plants arranged in a randomized, block design. There were four replicates for each rate of application. The soybean plants were evaluated at 21 days after treatment for percent phytotoxic injury by comparison to tests conducted on untreated plants and plants treated with Herbicidal Compound only. The rate of application clomazone for the Safening Composition A, and the rate of application of glyphosate for the Herbicidal Compound are expressed below in kg/ha.
(§2) As set forth in Example 2, the Herbicidal Compound and Safening Composition A were tested in the same manner as described in Example 1. The aforementioned Herbicidal Compound and Safening Composition A were sprayed as a tank mix onto 10-14 day old crop and weed species. The tests were evaluated at 14 days after treatment for percent injury by comparison to tests conducted on untreated plants and weeds, and plants and weeds treated with Herbicidal Compound only.

Sorghum = test: as above; conditions: clomazone 0 kg/ha, 14 days after treatment
Procedure: as §1, §2

Corn = test: as above; conditions: glyphosate 0.8 kg/ha, clomazone 0 kg/ha; 14 days after treatment
Procedure: as §1, §2

Rape = test: as above; conditions: glyphosate 0.8 kg/ha, clomazone 0 kg/ha; 14 days after treatment
Procedure: as §1, §2

Cucumber = test: as above; conditions: glyphosate 0.4 kg/ha, clomazone 0 kg/ha; 14 days after treatment
Procedure: as §1, §2

Rice = test: as above; conditions: glyphosate 0.4 kg/ha, clomazone 0 kg/ha; 14 days after treatment
Procedure: as §1, §2

Pinto Bean = test: as above; conditions: glyphosate 0.4 kg/ha, clomazone 0 kg/ha; 14 days after treatment
Procedure: as §1, §2

[1] = test system: soybean variety Asgrow 2704; test: Example 1: phytotoxic injury to soybean, tank mix sprayed on 12-day-old plants; conditions: clomazone 0 kg/ha, 21 days after treatment
Procedure: (§3) The aforementioned solutions were sprayed in admixture as a tank mix onto flats of 12-day-old soybean plants arranged in a randomized, block design. There were four replicates for each rate of application. The soybean plants were evaluated at 21 days after treatment for percent phytotoxic injury by comparison to tests conducted on untreated plants and plants treated with Herbicidal Compound only. The rate of application clomazone for the Safening Composition A, and the rate of application of glyphosate for the Herbicidal Compound are expressed below in kg/ha.

soybean Variety A3234 = test: as above; conditions: clomazone 0 kg/ha, 21 days after treatment
Procedure: as §3

two soybean varieties = test: Example 1: average phytotoxic injury to the two soybean varieties; conditions: without Safening Composition A
Procedure: as §1
For example, at the 0.2, 0.4, and 0.8 kg/ha rate of application of Herbicidal Compound, the average injury to the two soybean varieties is about 18%, 46%, and 70%, respectively.

O=C(O)CNCP(=O)(O)O [Herbicidal Compound, Glyphosate]
Percent Phytotoxic Injury Tomato (Tomato; glyphosate 0.2 kg/ha): 95% | Percent Phytotoxic Injury Tomato (Tomato; glyphosate 0.4 kg/ha): 100% | Percent Phytotoxic Injury Sorghum (Sorghum; glyphosate 0.4 kg/ha): 76% | Percent Phytotoxic Injury Sorghum (Sorghum; glyphosate 0.8 kg/ha): 100% | Percent Phytotoxic Injury Corn (Corn): 90% | Percent Phytotoxic Injury Rape (Rape): 84% | Percent Phytotoxic Injury Cucumber (Cucumber): 77% | Percent Phytotoxic Injury Rice (Rice): 65% | Percent Phytotoxic Injury Pinto Bean (Pinto Bean): 63% | Percent Phytotoxic Injury To Soybean Variety A2704 ([1]; glyphosate 0.2 kg/ha): 14% | Percent Phytotoxic Injury To Soybean Variety A2704 ([1]; glyphosate 0.4 kg/ha): 38% | Percent Phytotoxic Injury To Soybean Variety A2704 ([1]; glyphosate 0.8 kg/ha): 60% | Percent Phytotoxic Injury To Soybean Variety A3234 (soybean Variety A3234; glyphosate 0.2 kg/ha): 22% | Percent Phytotoxic Injury To Soybean Variety A3234 (soybean Variety A3234; glyphosate 0.4 kg/ha): 54% | Percent Phytotoxic Injury To Soybean Variety A3234 (soybean Variety A3234; glyphosate 0.8 kg/ha): 81% | average injury to the two soybean varieties (two soybean varieties; glyphosate 0.2 kg/ha): about 18% | average injury to the two soybean varieties (two soybean varieties; glyphosate 0.4 kg/ha): ~46% | average injury to the two soybean varieties (two soybean varieties; glyphosate 0.8 kg/ha): ~70%
